How the values were obtained:
NCI-H460 = conditions: for Total growth inhibition (TGI) / CC50: NCI-H460, Non-Small Cell Lung; for GI50: NCI-H460, Non-Small-Cell Lung; for CC50: read-out: 50% lethal concentration (LC50)
SNB-75 = conditions: SNB-75, CNS; for CC50: read-out: 50% lethal concentration (LC50)
OVCAR-8 = conditions: OVCAR-8, Ovarian; for CC50: read-out: 50% lethal concentration (LC50)
HOP-92 = conditions: for Total growth inhibition (TGI) / CC50: HOP-92, Non-Small Cell Lung; for GI50: HOP-92, Non-Small-Cell Lung; for CC50: read-out: 50% lethal concentration (LC50)
SK-OV-3 = conditions: SK-OV-3, Ovarian; for CC50: read-out: 50% lethal concentration (LC50)
A498 = conditions: A498, Renal; for CC50: read-out: 50% lethal concentration (LC50)
HS 578T = conditions: for GI50 / Total growth inhibition (TGI): Breast; for CC50: read-out: 50% lethal concentration (LC50), Breast
RPMI-8226 = conditions: RPMI-8226, Leukemia; for CC50: read-out: 50% lethal concentration (LC50)
COLO 205 = conditions: COLO 205, Colon
SN12C = conditions: for GI50 / Total growth inhibition (TGI): Renal; for CC50: read-out: 50% lethal concentration (LC50), Renal
UACC-62 = conditions: UACC-62, Melanoma; for CC50: read-out: 50% lethal concentration (LC50)
NCI-H522 = conditions: for Total growth inhibition (TGI) / CC50: NCI-H522, Non-Small Cell Lung; for GI50: NCI-H522, Non-Small-Cell Lung; for CC50: read-out: 50% lethal concentration (LC50)
PC-3 = conditions: PC-3, Prostate; for CC50: read-out: 50% lethal concentration (LC50)
UACC-257 = conditions: UACC-257, Melanoma
SF-295 = conditions: SF-295, CNS; for CC50: read-out: 50% lethal concentration (LC50)
SNB-19 = type: cell-based; conditions: SNB-19, CNS
MDA-MB-435 = conditions: MDA-MB-435, Melanoma; for CC50: read-out: 50% lethal concentration (LC50)
OVCAR-3 = conditions: OVCAR-3, Ovarian; for CC50: read-out: 50% lethal concentration (LC50)
NCI-H226 = conditions: for Total growth inhibition (TGI) / CC50: NCI-H226, Non-Small Cell Lung; for GI50: NCI-H226, Non-Small-Cell Lung; for CC50: read-out: 50% lethal concentration (LC50)
786-0 = conditions: 786-0, Renal; for CC50: read-out: 50% lethal concentration (LC50)
NCI/ADR-RES = conditions: for GI50 / Total growth inhibition (TGI): Ovarian; for CC50: read-out: 50% lethal concentration (LC50), Ovarian
CCRF-CEM = conditions: for CC50: read-out: 50% lethal concentration (LC50), Leukemia
OVCAR-4 = type: cell-based; conditions: OVCAR-4, Ovarian
UO-31 = conditions: UO-31, Renal; for CC50: read-out: 50% lethal concentration (LC50)
K-562 = conditions: K-562, Leukemia; for CC50: read-out: 50% lethal concentration (LC50)
RXF 393 = conditions: RXF 393, Renal; for CC50: read-out: 50% lethal concentration (LC50)
SF-539 = conditions: SF-539, CNS; for CC50: read-out: 50% lethal concentration (LC50)
HCT-116 = type: cell-based; conditions: HCT-116, Colon
HCT-15 = conditions: HCT-15, Colon; for CC50: read-out: 50% lethal concentration (LC50)
TK-10 = type: cell-based; conditions: TK-10, Renal
EKVX = conditions: for Total growth inhibition (TGI): Non-Small Cell Lung; for GI50: Non-Small-Cell Lung; for CC50: read-out: 50% lethal concentration (LC50), Non-Small Cell Lung
[1] = read-out: 50% lethal concentration (LC50)

Compound: C=C1CCC2C3(C)COC(c4cn(-c5ccccc5)nc4-c4ccc(F)cc4)OC3CCC2(C)C1CC=C1C(=O)OCC1O (stereo not drawn) [1f, 3,19-(N-Phenyl-3-(4-fluorophenyl)-pyrazole) Acetal of Andrographolide]
- Total growth inhibition (TGI) (NCI-H460): 3.33 µM
- GI50 (NCI-H460): 1.69 µM
- CC50 (NCI-H460): 6.57 µM
- GI50 (SNB-75): 1.66 µM
- Total growth inhibition (TGI) (SNB-75): 3.09 µM
- CC50 (SNB-75): 5.86 µM
- GI50 (OVCAR-8): 1.48 µM
- Total growth inhibition (TGI) (OVCAR-8): 2.95 µM
- CC50 (OVCAR-8): 5.86 µM
- Total growth inhibition (TGI) (HOP-92): 2.73 µM
- GI50 (HOP-92): 1.29 µM
- CC50 (HOP-92): 5.78 µM
- GI50 (SK-OV-3): 1.88 µM
- Total growth inhibition (TGI) (SK-OV-3): 5.48 µM
- CC50 (SK-OV-3): 30.7 µM
- GI50 (A498): 3.31 µM
- Total growth inhibition (TGI) (A498): 11.5 µM
- CC50 (A498): 38.3 µM
- GI50 (HS 578T): 1.51 µM
- Total growth inhibition (TGI) (HS 578T): 2.94 µM
- CC50 (HS 578T): 5.72 µM
- GI50 (RPMI-8226): 0.49 µM
- Total growth inhibition (TGI) (RPMI-8226): > 100 µM
- CC50 (RPMI-8226): > 100 µM
- GI50 (COLO 205): 1.48 µM
- Total growth inhibition (TGI) (COLO 205): 3.2 µM
- GI50 (SN12C): 1.55 µM
- Total growth inhibition (TGI) (SN12C): 3.27 µM
- CC50 (SN12C): 6.93 µM
- GI50 (UACC-62): 1.58 µM
- Total growth inhibition (TGI) (UACC-62): 3.09 µM
- CC50 (UACC-62): 6.05 µM
- Total growth inhibition (TGI) (NCI-H522): 3.82 µM
- GI50 (NCI-H522): 1.95 µM
- CC50 (NCI-H522): 7.48 µM
- GI50 (PC-3): 1.55 µM
- Total growth inhibition (TGI) (PC-3): 4.04 µM
- CC50 (PC-3): > 100 µM
- GI50 (UACC-257): 1.65 µM
- Total growth inhibition (TGI) (UACC-257): 3.18 µM
- GI50 (SF-295): 1.55 µM
- Total growth inhibition (TGI) (SF-295): 2.92 µM
- CC50 (SF-295): 5.49 µM
- GI50 (SNB-19): 1.44 µM
- Total growth inhibition (TGI) (SNB-19): 2.91 µM
- GI50 (MDA-MB-435): 1.68 µM
- Total growth inhibition (TGI) (MDA-MB-435): 3.27 µM
- CC50 (MDA-MB-435): 6.38 µM
- GI50 (OVCAR-3): 2.02 µM
- Total growth inhibition (TGI) (OVCAR-3): 3.71 µM
- CC50 (OVCAR-3): 6.79 µM
- Total growth inhibition (TGI) (NCI-H226): 2.94 µM
- GI50 (NCI-H226): 1.51 µM
- CC50 (NCI-H226): 5.75 µM
- GI50 (786-0): 1.6 µM
- Total growth inhibition (TGI) (786-0): 3.34 µM
- CC50 (786-0): 6.96 µM
- GI50 (NCI/ADR-RES): 1.54 µM
- Total growth inhibition (TGI) (NCI/ADR-RES): 3.57 µM
- CC50 (NCI/ADR-RES): 8.29 µM
- GI50 (CCRF-CEM; Leukemia): 0.4 µM
- CC50 (CCRF-CEM): > 100 µM
- GI50 (OVCAR-4): 1.75 µM
- Total growth inhibition (TGI) (OVCAR-4): 4.08 µM
- GI50 (UO-31): 1.6 µM
- Total growth inhibition (TGI) (UO-31): 3.34 µM
- CC50 (UO-31): 5.14 µM
- GI50 (K-562): 2.34 µM
- Total growth inhibition (TGI) (K-562): > 100 µM
- CC50 (K-562): > 100 µM
- GI50 (RXF 393): 1.6 µM
- Total growth inhibition (TGI) (RXF 393): 3.04 µM
- CC50 (RXF 393): 5.78 µM
- GI50 (SF-539): 1.77 µM
- Total growth inhibition (TGI) (SF-539): 3.16 µM
- CC50 (SF-539): 5.65 µM
- GI50 (HCT-116): 0.39 µM
- Total growth inhibition (TGI) (HCT-116): 1.18 µM
- GI50 (HCT-15): 1.61 µM
- Total growth inhibition (TGI) (HCT-15): 3.18 µM
- CC50 (HCT-15): 6.28 µM
- GI50 (TK-10): 1.27 µM
- Total growth inhibition (TGI) (TK-10): 2.55 µM
- Total growth inhibition (TGI) (EKVX): 4.72 µM
- GI50 (EKVX): 2.06 µM
- CC50 (EKVX): > 100 µM

Compound: C=C1CCC2C3(C)COC(c4cn(-c5ccccc5)nc4-c4ccc(Cl)cc4)OC3CCC2(C)C1CC=C1C(=O)OCC1O (stereo not drawn) [1g]
- Total growth inhibition (TGI) (NCI-H460): 3.72 µM
- GI50 (NCI-H460): 1.79 µM
- CC50 (NCI-H460): 7.76 µM
- GI50 (SNB-75): 1.69 µM
- Total growth inhibition (TGI) (SNB-75): 2.87 µM
- CC50 (SNB-75): 5.87 µM
- GI50 (OVCAR-8): 1.95 µM
- Total growth inhibition (TGI) (OVCAR-8): 4.97 µM
- CC50 (OVCAR-8): > 100 µM
- Total growth inhibition (TGI) (HOP-92): 3.08 µM
- GI50 (HOP-92): 1.5 µM
- CC50 (HOP-92): 6.32 µM
- GI50 (SK-OV-3): 3.04 µM
- Total growth inhibition (TGI) (SK-OV-3): 1.67 µM
- CC50 (SK-OV-3): > 100 µM
- GI50 (A498): 5.2 µM
- Total growth inhibition (TGI) (A498): 19 µM
- CC50 (A498): 53.7 µM
- GI50 (HS 578T): 1.75 µM
- Total growth inhibition (TGI) (HS 578T): 3.24 µM
- CC50 (HS 578T): 6.45 µM
- GI50 (RPMI-8226): 2.46 µM
- Total growth inhibition (TGI) (RPMI-8226): > 100 µM
- CC50 (RPMI-8226): > 100 µM
- GI50 (COLO 205): 2.3 µM
- Total growth inhibition (TGI) (COLO 205): 5.58 µM
- GI50 (SN12C): 1.67 µM
- Total growth inhibition (TGI) (SN12C): 3.57 µM
- CC50 (SN12C): 7.61 µM
- GI50 (UACC-62): 1.68 µM
- Total growth inhibition (TGI) (UACC-62): 3.27 µM
- CC50 (UACC-62): 6.39 µM
- Total growth inhibition (TGI) (NCI-H522): 3.12 µM
- GI50 (NCI-H522): 1.58 µM
- CC50 (NCI-H522): 6.17 µM
- GI50 (PC-3): 2.07 µM
- Total growth inhibition (TGI) (PC-3): > 100 µM
- CC50 (PC-3): > 100 µM
- GI50 (UACC-257): 1.8 µM
- Total growth inhibition (TGI) (UACC-257): 3.63 µM
- GI50 (SF-295): 1.5 µM
- Total growth inhibition (TGI) (SF-295): 2.88 µM
- CC50 (SF-295): 5.51 µM
- GI50 (SNB-19): 1.4 µM
- GI50 (MDA-MB-435): 1.65 µM
- Total growth inhibition (TGI) (MDA-MB-435): 3.28 µM
- CC50 (MDA-MB-435): 6.51 µM
- GI50 (OVCAR-3): 1.78 µM
- Total growth inhibition (TGI) (OVCAR-3): 3.72 µM
- CC50 (OVCAR-3): 7.77 µM
- Total growth inhibition (TGI) (NCI-H226): 3.05 µM
- GI50 (NCI-H226): 1.55 µM
- CC50 (NCI-H226): 5.99 µM
- GI50 (786-0): 1.99 µM
- Total growth inhibition (TGI) (786-0): 4.17 µM
- CC50 (786-0): 8.7 µM
- GI50 (NCI/ADR-RES): 1.83 µM
- Total growth inhibition (TGI) (NCI/ADR-RES): 4.24 µM
- CC50 (NCI/ADR-RES): 9.87 µM
- GI50 (CCRF-CEM; Leukemia): 0.92 µM
- Total growth inhibition (TGI) (CCRF-CEM; Leukemia): > 100 µM
- CC50 (CCRF-CEM): > 100 µM
- GI50 (OVCAR-4): 2.03 µM
- Total growth inhibition (TGI) (OVCAR-4): 5.15 µM
- CC50 (OVCAR-4; [1]): > 100 µM
- GI50 (UO-31): 1.99 µM
- Total growth inhibition (TGI) (UO-31): 4.17 µM
- CC50 (UO-31): 5.6 µM
- GI50 (K-562): 3.67 µM
- Total growth inhibition (TGI) (K-562): > 100 µM
- CC50 (K-562): > 100 µM
- GI50 (RXF 393): 1.79 µM
- Total growth inhibition (TGI) (RXF 393): 3.37 µM
- CC50 (RXF 393): 6.33 µM
- GI50 (SF-539): 1.72 µM
- Total growth inhibition (TGI) (SF-539): 3.12 µM
- CC50 (SF-539): 5.66 µM
- GI50 (HCT-116): 1.2 µM
- Total growth inhibition (TGI) (HCT-116): 2.53 µM
- CC50 (HCT-116; [1]): 5.37 µM
- GI50 (HCT-15): 1.59 µM
- Total growth inhibition (TGI) (HCT-15): 3.21 µM
- CC50 (HCT-15): 6.51 µM
- GI50 (TK-10): 1.33 µM
- Total growth inhibition (TGI) (TK-10): 2.74 µM
- Total growth inhibition (TGI) (EKVX): 5.28 µM
- GI50 (EKVX): 2.24 µM
- CC50 (EKVX): > 100 µM

From paper PMC12298351, “Novel 3,19-(N-Phenyl-3-(4-fluorophenyl)-pyrazole) Acetal of Andrographolide Promotes Cell Cycle Arrest and Apoptosis in MDA-MB-231 Breast Cancer Cells” (Pharmaceuticals, 2025)
